The values that follow come from patent US6887873B2, “Triazine derivatives and their application as antitelomerase agents” (Aventis Pharma S.A., priority 2001, dated 2005).

One data set relates to A549 cells. As to the kind of experiment: Cytotoxic activity on human tumour line A549, neutral red, 96 hours. The class given is cell-based. To be noted: A549; read-out: Cytotox. A549 IC50. The protocol:
The cytotoxic biological activity on human tumour lines is determined according to the following experimental protocol:
The human cell lines A549 are obtained from ATCC (American Type Culture Collection, Rockville, USA). The A549 cells are cultured in a layer in a culture flask in RPMI 1640 medium containing L-glutamine at 2 mM, penicillin 200 U/ml, streptomycin 200 μg/ml and supplemented with 10% heat-inactivated foetal calf serum. The KB cells are cultured in a layer in a culture flask in Dulbelco's medium containing L-glutamine at 2 mM, penicillin 200 U/ml, streptomycin 200 μg/ml and supplemented with 10% heat-inactivated foetal calf serum.
The cells at the exponential growth phase are trypsinized, washed in 1×PBS and are inoculated in 96-well microplates (Costar) in an amount of 4×10^4 cells/ml for A549 and of 1.5×10^4 cells/ml (0.2 ml/well) and then incubated for 96 hours in the presence of variable concentrations of product to be studied (10, 1, 0.1 and 0.01 μM, each point in quadruplicate). 16 hours before the end of the incubation, 0.02% final of neutral red is added to each well. At the end of the incubation, the cells are washed with 1×PBS and lysed with 1% sodium lauryl sulphate. The cellular incorporation of the dye, which reflects cellular growth, is evaluated by spectro-photometry at a wavelength of 540 nm for each sample with the aid of a Dynatech MR5000 reading apparatus.
For each compound concentration tested, the results are expressed as percentage of inhibition of cellular growth and calculated from the untreated control and the culture medium free of cells (blank) according to the following formula: (compound value−blank value/cell control value−blank value)×100.
The concentration of compound inducing a 50% inhibition of growth (IC50) is determined with the aid of a semilogarithmic graphical representation of the inhibition values obtained as a function of each of the compound concentrations tested.
A compound is considered to be active as cytotoxic agent if the concentration inhibiting the growth of the tumour cells tested by 50% is in particular less than 10 μM.
On to `Cc1cc(N(C)C)c2cc(Nc3nc(NCc4ccncc4)nc(Nc4ccc5nc(C)cc(N(C)C)c5c4)n3)ccc2n1` [Example 27, 2,4-bis(4-dimethylamino-2-methylquinolin-6-yl)amino-6-(pyridin-4-yl)methylamino-[1,3,5]triazine], for which the IC50 stood at 1 µM.
In the case of `Cc1cc(N(C)C)c2cc(Nc3nc(NCc4ccncc4)nc(Nc4ccc5nc(C)cc(N(C)C)c5c4)n3)ccc2n1` [Example 145], the concentration for half-maximal inhibition (IC50) worked out at 0.42 µM.

The data set is the same for the next values; noted with them: Homo sapiens, A549, A549; read-out: Cytotox. A549 IC50.
On to `Cc1cc(N)c2cc(Nc3nc(Nc4ccc5nc(C)cc(N)c5c4)nc(Nc4ccc5nc(C)cc(N)c5c4)n3)ccc2n1` [Example 2, 2,4,6-tris(4-amino-2-methylquinolin-6-yl)amino-[1,3,5]triazine], for which the IC50 amounted to 10 µM.
As to `COc1cccc(Oc2nc(Nc3ccc4nc(C)cc(N)c4c3)nc(Nc3ccc4nc(C)cc(N)c4c3)n2)c1` [Example 104], the half-inhibitory concentration (IC50) is 11.4 µM.
In the case of `Cc1cc(N(C)C)c2cc(Nc3nc(Nc4ccncc4)nc(Nc4ccc5nc(C)cc(N(C)C)c5c4)n3)ccc2n1` [Example 18], the concentration for half-maximal inhibition (IC50) was 2.86 µM.
On the same count and under the same terms, with `Cc1cc(N(C)C)c2cc(Nc3nc(NCCN4CCN(Cc5ccccc5)CC4)nc(Nc4ccc5nc(C)cc(N(C)C)c5c4)n3)ccc2n1` [Example 140] the figure was 0.512 µM; with `Cc1cc(N(C)C)c2cc(Nc3nc(NCC[N+](C)(C)C)nc(Nc4ccc5nc(C)cc(N(C)C)c5c4)n3)ccc2n1` [Example 142], 1.56 µM; with `Cc1cc(N)c2cc(Nc3nc(Nc4ccc5nc(C)cc(N)c5c4)nc(N(Cc4ccccc4)C4CN5CCC4CC5)n3)ccc2n1` (stereo not shown) [Example 92], 7.8 µM.
Still for that read-out and setting: in the case of `Cc1cc(N)c2cc(Nc3nc(Nc4ccc5nc(C)cc(N)c5c4)nc(N4CCN(C5CCCC5)CC4)n3)ccc2n1` [Example 43] it was 10 µM; in that of `Cc1cc(N)c2cc(Nc3nc(Nc4ccc5nc(C)cc(N)c5c4)nc(N4CCCC4c4cccnc4)n3)ccc2n1` (stereo not shown) [Example 86], 18.9 µM; in that of `Cc1cc(N)c2cc(Nc3nc(Nc4ccc(N5CCNCC5)cc4)nc(Nc4ccc5nc(C)cc(N)c5c4)n3)ccc2n1` [Example 15], 1.85 µM.
Regarding `CCN(CCN(C)C)c1nc(Nc2ccc3nc(C)cc(N(C)C)c3c2)nc(Nc2ccc3nc(C)cc(N(C)C)c3c2)n1` [Example 146], the IC50 came out at 0.175 µM.
On the same count and under the same terms, in the case of `CC(=O)NCCNc1nc(Nc2ccc3nc(C)cc(N(C)C)c3c2)nc(Nc2ccc3nc(C)cc(N(C)C)c3c2)n1` [Example 150] it was 2.47 µM; in that of `Cc1cc(N)c2cc(Nc3nc(NCc4ccc([N+](C)(C)C)cc4)nc(Nc4ccc5nc(C)cc(N)c5c4)n3)ccc2n1` [Example 60], 5.7 µM; in that of `Cc1cc(N)c2cc(Nc3nc(Nc4ccc5nc(C)cc(N)c5c4)nc(Sc4ncccn4)n3)ccc2n1` [Example 126], 11.4 µM.
On the same count and under the same terms, in the case of `CCN(CCNc1nc(Nc2ccc3nc(C)cc(N(C)C)c3c2)nc(Nc2ccc3nc(C)cc(N(C)C)c3c2)n1)c1cccc(C)c1` [Example 28] it was 1.5 µM; in that of `Cc1cc(C)nc(Sc2nc(Nc3ccc4nc(C)cc(N)c4c3)nc(Nc3ccc4nc(C)cc(N)c4c3)n2)n1` [Example 127], 15.9 µM.
Turning to `Cc1cc(N)c2cc(Nc3nc(Nc4ccc5nc(C)cc(N)c5c4)nc(Sc4ccccc4Cl)n3)ccc2n1` [Example 118], the IC50 was 13.7 µM.
In the case of `Cc1cc(N)c2cc(Nc3nc(Nc4ccc5nc(C)cc(N)c5c4)nc(NC4CCN(Cc5ccccc5)CC4)n3)ccc2n1` [Example 93], the IC50 was determined as 9.3 µM.
Regarding `CC1=NCCN1c1nc(Nc2ccc3nc(C)cc(N(C)C)c3c2)nc(Nc2ccc3nc(C)cc(N(C)C)c3c2)n1` [Example 148], the IC50 is 1.5 µM.
As to `Cc1cc(N(C)C)c2cc(Nc3nc(Nc4ccc5nc(C)cc(N(C)C)c5c4)nc(N4CCCN(C)CC4)n3)ccc2n1` [Example 135, 2,4-bis(4-dimethylamino-2-methylquinolin-6-yl)amino-6-(1-methylhomopiperazin-4-yl)-[1,3,5]triazine], the half-inhibitory concentration (IC50) amounted to 0.07 µM.
For `Cc1cc(N)c2cc(Nc3nc(Nc4ccc5nc(C)cc(N(C)C)c5c4)nc(Nc4ccccc4Cl)n3)ccc2n1` [Example 3], the half-inhibitory concentration (IC50) worked out at 6 µM.
For `Cc1cc(N(C)C)c2cc(Nc3nc(Nc4ccc5nc(C)cc(N(C)C)c5c4)nc(N4CCN(CCCN(C)C)CC4)n3)ccc2n1` [Example 136, 2,4-bis(4-dimethylamino-2-methylquinolin-6-yl)amino-6-[1-(3-dimethylaminopropyl)piperazin-4-yl]-[1,3,5]triazine], the IC50 stood at 0.026 µM.
As to `Cc1cc(N(C)C)c2cc(Nc3nc(Nc4ccc5nc(C)cc(N(C)C)c5c4)nc(N(C)C4CCN(C)CC4)n3)ccc2n1` [Example 138, 2,4-bis(4-dimethylamino-2-methylquinolin-6-yl)amino-6-[N-(1-methylpiperidin-4-yl)-N-methylamino]-[1,3,5]triazine], the concentration for half-maximal inhibition (IC50) worked out at 0.061 µM.
On to `Cc1cc(N)c2cc(Nc3nc(Nc4ccc5nc(C)cc(N)c5c4)nc(Sc4ccc5ccccc5n4)n3)ccc2n1` [Example 128, 2,4-bis(4-amino-2-methylquinolin-6-yl)amino-6-(quinolin-2-yl)thio-[1,3,5]triazine], for which the IC50 was determined as 2.86 µM.
For `Cc1cc(N(C)C)c2cc(Nc3nc(Nc4ccc5nc(C)cc(N(C)C)c5c4)nc(N4CCC[C@H]4CN4CCCC4)n3)ccc2n1` [Example 149, 2,4-bis(4-dimethylamino-2-methylquinolin-6-yl)amino-6-[2(S)-(pyrrolidin-1-yl)methylpyrrolidin-1-yl]-[1,3,5]triazine], the IC50 is 0.096 µM.
Same read-out and setting: in the case of `Cc1cc(N)c2cc(Nc3nc(Nc4ccc5nc(C)cc(N)c5c4)nc(NC4CCN(Cc5ccccc5)C4)n3)ccc2n1` (stereo not shown) [Example 41] it was 9.9 µM; in that of `Cc1cc(N)c2cc(Nc3nc(Nc4ccc5nc(C)cc(N)c5c4)nc(Sc4ccccn4)n3)ccc2n1` [Example 120], 17.8 µM; in that of `Cc1cc(N)c2cc(Nc3nc(Nc4ccc5nc(C)cc(N)c5c4)nc(NC4CN5CCC4CC5)n3)ccc2n1` (stereo not shown) [Example 17, 2,4-bis(4-amino-2-methylquinolin-6-yl)amino-6-(quinuclidin-3-yl)amino-[1,3,5]triazine], 2.73 µM.
As for `Cc1cc(N(C)C)c2cc(Nc3nc(Nc4ccc5nc(C)cc(N(C)C)c5c4)nc(Oc4ccncc4)n3)ccc2n1` [Example 115, 2,4-bis(4-dimethylamino-2-methylquinolin-6-yl)amino-6-(pyridin-4-yl)oxy-[1,3,5]triazine], the IC50 came to 1.6 µM.
In the case of `CCCN(CCC)CCN1CCN(c2nc(Nc3ccc4nc(C)cc(N(C)C)c4c3)nc(Nc3ccc4nc(C)cc(N(C)C)c4c3)n2)CC1` [Example 137, 2,4-bis(4-dimethylamino-2-methylquinolin-6-yl)amino-6-[1-(2-dipropylaminoethyl)piperazin-4-yl]-[1,3,5]triazine], the IC50 is 0.15 µM.
`Cc1cc(N)c2cc(Nc3nc(Nc4ccc5nc(C)cc(N)c5c4)nc(N4CCN(C5CCCCCCC5)CC4)n3)ccc2n1` [Example 77]: the IC50 is 5.6 µM.
Still for that read-out and setting: with `Cc1cc(N(C)C)c2cc(Nc3nc(Nc4ccc5nc(C)cc(N(C)C)c5c4)nc(C4CCN(C)CC4)n3)ccc2n1` [Example 19, 2,4-bis(4-dimethylamino-2-methylquinolin-6-yl)amino-6-(1-methylpiperidin-4-yl)-[1,3,5]triazine] the figure was 0.3 µM; with `Cc1cc(N(C)C)c2cc(Nc3nc(Nc4ccc5nc(C)cc(N(C)C)c5c4)nc(N4CCN(c5ccncc5)CC4)n3)ccc2n1` [Example 144, 2,4-bis(4-dimethylamino-2-methylquinolin-6-yl)amino-6-[1-(pyridin-4-yl)piperazin-4-yl]-[1,3,5]triazine], 0.04 µM.
Still for that read-out and setting: in the case of `Cc1cc(N(C)C)c2cc(Nc3nc(NCCCN(C)C)nc(Nc4ccc5nc(C)cc(N(C)C)c5c4)n3)ccc2n1` [Example 1, 2,4-bis(4-dimethylamino-2-methylquinolin-6-yl)amino-6-(3-dimethylaminopropyl)amino-[1,3,5]triazine] it was 0.23 µM.
Regarding `Cc1cc(N)c2cc(Nc3nc(Nc4ccc5nc(C)cc(N)c5c4)nc(Oc4ccccc4Cl)n3)ccc2n1` [Example 103], the IC50 worked out at 11.3 µM.
Take `COc1ccc(CSc2nc(Nc3ccc4nc(C)cc(N)c4c3)nc(Nc3ccc4nc(C)cc(N)c4c3)n2)cc1` [Example 124]: the 50% inhibitory concentration (IC50) stood at 6.2 µM.
The same measure, in the same setting: in the case of `Cc1cc(N(C)C)c2cc(Nc3nc(Nc4ccc5nc(C)cc(N(C)C)c5c4)nc(N4CCCN(CCCN5CCCC5)CC4)n3)ccc2n1` [Example 139] it was 0.045 µM; in that of `Cc1cc(N(C)C)c2cc(Nc3nc(Nc4ccc5nc(C)cc(N(C)C)c5c4)nc(N4CCN(CCOCCO)CC4)n3)ccc2n1` [Example 141, 2,4-bis(4-dimethylamino-2-methylquinolin-6-yl)amino-6-{[1-2-(2-hydroxyethyl)oxyethyl]piperazin-4-yl}-[1,3,5]triazine], 0.096 µM; in that of `Cc1cc(N)c2cc(Nc3nc(Nc4ccc5nc(C)cc(N)c5c4)nc(N4CCN(C(=O)c5ccco5)CC4)n3)ccc2n1` [Example 68], 11.5 µM.
